Earlier results on one compound are cited in US20240335414A1, “SPECIALIZED COMBINATIONS FOR MENTAL DISORDERS OR MENTAL ENHANCEMENT” (TACTOGEN INC, priority 2021, published 2024).

The conditions of data set [1]: MDMA arm, first of two Phase 3 trials, MDMA-assisted therapy.
Data set [2] concerns neuritogenesis.
The conditions of data set [3]: pooled Phase 2 clinical trials.
Data set [4] deals with 5-HT1B (Homo sapiens, UniProt P28222).

pEC50: −log10 of the molar value.

5-HT1B, sequence (P28222 whole entry, species assumed): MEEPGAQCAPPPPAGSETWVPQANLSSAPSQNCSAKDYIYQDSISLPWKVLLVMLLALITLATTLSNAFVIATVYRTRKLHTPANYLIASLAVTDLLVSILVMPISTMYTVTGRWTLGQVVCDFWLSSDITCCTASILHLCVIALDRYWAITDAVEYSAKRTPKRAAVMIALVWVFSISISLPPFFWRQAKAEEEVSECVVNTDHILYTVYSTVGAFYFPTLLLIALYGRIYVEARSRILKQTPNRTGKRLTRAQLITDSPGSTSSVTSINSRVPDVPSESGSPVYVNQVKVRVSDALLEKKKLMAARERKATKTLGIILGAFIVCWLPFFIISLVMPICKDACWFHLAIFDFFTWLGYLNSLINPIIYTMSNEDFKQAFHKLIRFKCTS

As to `CNC(C)Cc1ccc2c(c1)OCO2` (stereo not drawn) [MDMA, 3,4-methylenedioxymethamphetamine], in data set [1], the “participants no longer diagnosable with PTSD” value was “two-thirds”. For the same compound, in data set [2] (read-out: EC50 for promoting neuritogenesis), the negative logarithm of the EC50 (pEC50) – broadly, the EC50 on a negative log10 scale, so that one unit is a factor of ten – was 8.13. Besides, in data set [2] (relative to ketamine), the “Emax for promoting neuritogenesis, compared with ketamine” value is reported as “approximately twice that of ketamine”. For the same compound, in data set [3] (29 of 72 participants), the “nausea, proportion of participants” value was 40.3%. Also, the “anxiety, proportion of participants” value in data set [3] (52 of 72 participants) is 72.2%. For the same compound, the “binding to the 5-HT1B” value in data set [4] was “does not bind”.
